Reference: patent US9115137B2, “2,3,4,5-tetrahydro-1H-pyrido[4,3-B]indole compounds and methods of use thereof” (priority 2008, dated 2015)

Legend:
[1] = biological target: T1, human recombinant adrenergic α2B receptor (Homo sapiens, UniProt P18089); assay: Adrenergic α2B radioligand binding ([3H]Rauwolscine); conditions: compound at 1 μM; CHO-K1 cells; read-out: Adrenergic (1 μM) α2B, percent inhibition of specific binding
T1 construct: expressed in transfected cells; host or cells: CHO-K1 cells
T1 sequence (P18089 1-450): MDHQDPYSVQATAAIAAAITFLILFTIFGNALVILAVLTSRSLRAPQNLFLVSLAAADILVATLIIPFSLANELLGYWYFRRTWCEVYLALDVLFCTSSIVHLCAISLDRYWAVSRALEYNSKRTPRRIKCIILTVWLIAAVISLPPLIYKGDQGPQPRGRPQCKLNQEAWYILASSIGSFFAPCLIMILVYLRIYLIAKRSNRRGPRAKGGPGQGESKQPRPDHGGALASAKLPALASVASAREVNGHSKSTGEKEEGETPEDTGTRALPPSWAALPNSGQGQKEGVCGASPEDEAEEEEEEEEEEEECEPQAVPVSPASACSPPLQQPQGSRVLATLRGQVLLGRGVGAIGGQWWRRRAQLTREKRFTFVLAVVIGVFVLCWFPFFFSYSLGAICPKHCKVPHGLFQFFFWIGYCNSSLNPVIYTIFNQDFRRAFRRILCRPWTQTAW
Experimental: To evaluate in radioligand binding assays the activity of compounds of the invention, human recombinant adrenergic α2B receptor expressed in Chinese hamster ovary (CHO-K1) cells (Uhlen S et al. Eur. J. Pharmacol. 343(1):93, 1998) in a modified Tris-HCl buffer (50 mM Tris-HCl, pH 7.4, 12.5 mM MgCl2, 1 mM EDTA, 0.2% BSA) was used. Compounds of the invention were incubated with 2.5 nM [3H]Rauwolscine for 60 minutes at 25° C. Non-specific binding was estimated in the presence of 10 μM Prozosin. Receptor proteins were filtered and washed, the filters were then counted to determine [^3H]Rauwolscine specifically bound. Compounds were screened at 1 μM or lower, using 1% DMSO as vehicle. Biochemical assay results are presented as the percent inhibition of specific binding in Table 6.

[2] = test system: rat central imidazoline I2 receptor; assay: Central imidazoline I2 radioligand binding ([3H]Idazoxan); conditions: compound at 1 μM; Wistar Rat cerebral cortex
Experimental: To evaluate in radioligand binding assays the activity of compounds of the invention, rat central imidazoline I2 receptor obtained from Wistar Rat cerebral cortex (Brown, C. M. et al., Br. J. Pharmacol. 99:803, 1990) in a modified Tris-HCl buffer (50 mM Tris-HCl buffer, pH 7.4, 0.5 mM EDTA) was used. Compounds of the invention were incubated with 2 nM [^3H]Idazoxan for 30 minutes at 25° C. Non-specific binding was estimated in the presence of 1 μM Idazoxan. Receptor proteins were filtered and washed, the filters were then counted to determine [^3H]Idazoxan specifically bound. Compounds were screened at 1 μM or lower, using 1% DMSO as vehicle. Compounds of the invention were tested in this biochemical assay and percent inhibition of specific binding was determined. Biochemical assay results are presented as the percent inhibition of specific binding in Table 5.

Structure (SMILES) | inhibition at 1 µM [1] | Imidazoline I2 Central (1 μM), percent inhibition of specific binding [2]
CCOC(=O)CCn1c2c(c3cc(Cl)ccc31)CN(C)CC2 [CD17, ethyl 3-(8-chloro-1,2,3,4-tetrahydro-2-methylpyrido[4,3-b]indol-5-yl)propanoate] | 99% | 62%
CN1CCc2c(c3cc(Cl)ccc3n2CC(=O)O)C1 [CD46, 2-(8-chloro-1,2,3,4-tetrahydro-2-methylpyrido[4,3-b]indol-5-yl)acetic acid] | 35% | 28%
Cc1ccc2c(c1)c1c(n2CCC(=O)O)CCN(C)C1 [CD47, 3-(1,2,3,4-tetrahydro-2,8-dimethylpyrido[4,3-b]indol-5-yl)propanoic acid] | 24% | 3%
CN1CCc2c(c3cc(Cl)ccc3n2CCC(=O)O)C1 [CD55, 3-(8-chloro-1,2,3,4-tetrahydro-2-methylpyrido[4,3-b]indol-5-yl)propanoic acid] | 10% | 3%
Cc1ccc2c(c1)c1c(n2CC(=O)O)CCN(C)C1 [CD58, 2-(1,2,3,4-tetrahydro-2,8-dimethylpyrido[4,3-b]indol-5-yl)acetic acid] | -6% | 3%
Cc1ccc2c(c1)c1c(n2CCN)CCN(C)C1 [CD62, 2-(1,2,3,4-tetrahydro-2,8-dimethylpyrido[4,3-b]indol-5-yl)ethanamine] | 32% | 13%
CCOC(=O)Cn1c2c(c3cc(Cl)ccc31)CN(C)CC2 [Compound 10, ethyl 2-(8-chloro-1,2,3,4-tetrahydro-2-methylpyrido[4,3-b]indol-5-yl)acetate] | 71% | 25%
CC(C)OC(=O)Cn1c2c(c3cc(Cl)ccc31)CN(C)CC2 [Compound 11, isopropyl 2-(8-chloro-1,2,3,4-tetrahydro-2-methylpyrido[4,3-b]indol-5-yl)acetate] | 69% | 5%
CN1CCc2c(c3cc(Cl)ccc3n2CC(=O)OCc2ccccc2)C1 [Compound 13, benzyl 2-(8-chloro-1,2,3,4-tetrahydro-2-methylpyrido[4,3-b]indol-5-yl)acetate] | 97% | 16%
CN1CCc2c(c3cc(Cl)ccc3n2CC(=O)OC2CCCC2)C1 [Compound 15] | 95% | 23%
CCNC(=O)Cn1c2c(c3cc(C)ccc31)CN(C)CC2 [Compound 22, N-ethyl-2-(1,2,3,4-tetrahydro-2,8-dimethylpyrido[4,3-b]indol-5-yl)acetamide] | 58% | 51%
Cc1ccc2c(c1)c1c(n2CC(=O)NC(C)C)CCN(C)C1 [Compound 23, 2-(1,2,3,4-tetrahydro-2,8-dimethylpyrido[4,3-b]indol-5-yl)-N-isopropylacetamide] | 18% | 1%
Cc1ccc2c(c1)c1c(n2CC(=O)NCc2ccccc2)CCN(C)C1 [Compound 25, N-benzyl-2-(1,2,3,4-tetrahydro-2,8-dimethylpyrido[4,3-b]indol-5-yl)acetamide] | 38% | 18%
CN1CCc2c(c3cc(Cl)ccc3n2CC(=O)NC2CCCC2)C1 [Compound 27, 2-(8-chloro-1,2,3,4-tetrahydro-2-methylpyrido[4,3-b]indol-5-yl)-N-cyclopentylacetamide] | 35% | 8%
Cc1ccc2c(c1)c1c(n2CCC(=O)NCC2CCCCC2)CCN(C)C1 [Compound 30, N-(cyclohexylmethyl)-3-(1,2,3,4-tetrahydro-2,8-dimethylpyrido[4,3-b]indol-5-yl)propanamide] | 104% | 61%
CN1CCc2c(c3cc(Cl)ccc3n2CCC(=O)NC2CCCC2)C1 [Compound 31, 3-(8-chloro-1,2,3,4-tetrahydro-2-methylpyrido[4,3-b]indol-5-yl)-N-cyclopentylpropanamide] | 91% | 33%
CN1CCc2c(c3cc(Cl)ccc3n2CC(N)=O)C1 [Compound 45, 2-(8-chloro-1,2,3,4-tetrahydro-2-methylpyrido[4,3-b]indol-5-yl)acetamide] | 18% | 24%
Cc1ccc2c(c1)c1c(n2CCC(=O)Nc2ccc(F)cc2)CCN(C)C1 [Compound 47, N-(4-fluorophenyl)-3-(1,2,3,4-tetrahydro-2,8-dimethylpyrido[4,3-b]indol-5-yl)propanamide] | 96% | 47%
CN1CCc2c(c3cc(Cl)ccc3n2CC(=O)N(C)C)C1 [Compound 48, 2-(8-chloro-1,2,3,4-tetrahydro-2-methylpyrido[4,3-b]indol-5-yl)-N,N-dimethylacetamide] | 13% | 18%
CN1CCc2c(c3cc(Cl)ccc3n2CCC(=O)N(C)C)C1 [Compound 49, 3-(8-chloro-1,2,3,4-tetrahydro-2-methylpyrido[4,3-b]indol-5-yl)-N,N-dimethylpropanamide] | 76% | 58%
Cc1ccc2c(c1)c1c(n2CCNC(=O)c2ccncc2)CCN(C)C1 [Compound 50, N-(2-(1,2,3,4-tetrahydro-2,8-dimethylpyrido[4,3-b]indol-5-yl)ethyl)isonicotinamide] | 70% | 24%
Cc1ccc2c(c1)c1c(n2CC(=O)Nc2ccc(F)cc2)CCN(C)C1 [Compound 51, N-(4-fluorophenyl)-2-(1,2,3,4-tetrahydro-2,8-dimethylpyrido[4,3-b]indol-5-yl)acetamide] | 82% | 12%
CCCCOC(=O)Cn1c2c(c3cc(Cl)ccc31)CN(C)CC2 [Compound 52, butyl 2-(8-chloro-1,2,3,4-tetrahydro-2-methylpyrido[4,3-b]indol-5-yl)acetate] | 89% | 14%
Cc1ccc2c(c1)c1c(n2CCC(=O)NCc2ccccc2)CCN(C)C1 [Compound 59, N-benzyl-3-(1,2,3,4-tetrahydro-2,8-dimethylpyrido[4,3-b]indol-5-yl)propanamide] | 96% | 64%
CN1CCc2c(c3cc(Cl)ccc3n2CC(=O)NC2CCCCC2)C1 [Compound 60, 2-(8-chloro-1,2,3,4-tetrahydro-2-methylpyrido[4,3-b]indol-5-yl)-N-cyclohexylacetamide] | 52% | 6%
Cc1ccc2c(c1)c1c(n2CCNC(=O)C(C)C)CCN(C)C1 [Compound 61, N-(2-(1,2,3,4-tetrahydro-2,8-dimethylpyrido[4,3-b]indol-5-yl)ethyl)isobutyramide] | 70% | 40%
